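Exposure lasted 48 hours, with cells grown in 96-well plates and compounds tested at five concentrations. GI50: concentration for 50% inhibition of growth.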 The source made the active and inactive calls. Rule as the data show it: active = GI50 up to about 1.1 µM and inactive = higher.
Tests used:
Experiment in all cases: NCI-60 cell line screen, 48 h
NCI-H226 = system: NCI-H226
HCC 2998 = system: HCC 2998
RXF 393 = system: RXF 393
HCT-15 = system: HCT-15
LOX IMVI = system: LOX IMVI
ACHN = system: ACHN
K562 = system: K562
EKVX = system: EKVX
SF-295 = system: SF-295
CCRF-CEM = system: CCRF-CEM
SF-539 = system: SF-539
U-251 = system: U-251
SNB-75 = system: SNB-75
OVCAR-3 = system: OVCAR-3
M14 = system: M14
SK-MEL-2 = system: SK-MEL-2
HCT-116 = system: HCT-116
SK-MEL-28 = system: SK-MEL-28
OVCAR-5 = system: OVCAR-5
SK-OV-3 = system: SK-OV-3

With `COc1cc2c(oc(=O)c3cc4cc([Si](C)(C)C)oc4c(OC)c32)c2cccc(O)c12` the GI50 (NCI-H226) was > 100 µM (inactive), the GI50 (HCC 2998) was > 100 µM (inactive) and the GI50 (RXF 393) was > 100 µM (inactive). The GI50 (HCT-15) was greater than 100 µM, the GI50 (LOX IMVI) was > 100 µM (inactive) and the GI50 (ACHN) was > 100 µM (inactive). For the same compound, the GI50 (K562) was > 100 µM (inactive), the GI50 (EKVX) was > 100 µM (inactive) and the GI50 (SF-295) was > 100 µM (inactive). The GI50 (CCRF-CEM) was > 100 µM (inactive), the GI50 (SF-539) was > 100 µM (inactive) and the GI50 (U-251) was > 100 µM (inactive). For the same compound, the GI50 (SNB-75) was > 100 µM (inactive), the GI50 (OVCAR-3) was > 100 µM (inactive) and the GI50 (M14) was > 100 µM (inactive). The GI50 (SK-MEL-2) was > 100 µM (inactive), the GI50 (HCT-116) was > 100 µM (inactive) and the GI50 (SK-MEL-28) was > 100 µM (inactive). The GI50 (OVCAR-5) was > 100 µM (inactive) and the GI50 (SK-OV-3) was > 100 µM (inactive).
